# Measured values reported in ChEMBL document CHEMBL3988181, “GlaxoSmithKline Published Kinase Inhibitor Set 2 Onchocerca lienalis Screening Data”.
# Test: GSK PKIS2: Screen against O. lienalis microfilariae, single point, at 3.1uM to assess reduction in motility. Compounds were also tested for cytotoxicity against Rhesus Monkey LLCMK2 cells.
# Assay type: functional, Onchocerca lienalis, LLC-MK2
# Conditions: CELL_LINE LLCMK2; CELL_SUPPLIER ECACC; CONC 3.1 uM; ORGANISM_SUPPLIER Extracted from peri-umbilical skin obtained from naturally infected cattle in the UK; temperature 37 degree C
row,SMILES,MOTILITY REDUCTION/CYTOTOXICITY
1,Fc1ccc(-c2ncn(CCCN3CCOCC3)c2-c2cccnc2)cc1,0%
2,Clc1ccc(-c2nn3ncccc3c2-c2ccnc(Nc3ccc4c(c3)OCCO4)n2)cc1,0%
3,COc1ccc(-c2oc3ncnc(N)c3c2-c2ccc(OC)cc2)cc1,20%
4,COc1cccc2c(-c3ccncc3)c(-c3ccc(F)cc3)nn12,66.7%
5,COC(=O)c1cccc(NC(=O)NC2CCN(c3ccnc(NCc4ccc(F)cc4)n3)CC2)c1,20%
6,CC(C)(C)n1cnc2c(N)ncnc21,0%
7,N#CCc1ccc(Nc2nccc(Nc3ccc(Oc4ccccc4)cc3)n2)cc1,20%
8,COc1ccc(NC(=O)Nc2ccc(C)c(-c3ccc(C(=O)Nc4ccncc4)cc3)c2)cc1,80%
9,Cc1cccc(Nc2nc(N[C@H]3CCNC3)ncc2C(N)=O)c1,26.7%
10,COc1ccc(CNC(=O)NC2CCN(c3ccnc(Nc4ccc(F)cc4)n3)C2)cc1 (centres undefined),0%
11,CC(C)c1ccc(O)cc1Nc1ccnc2ccc(C(F)(F)F)cc12,33.4%
12,c1ccc(-c2ccc3c(Nc4ccc5[nH]ccc5c4)ccnc3c2)nc1,33.4%
13,c1ccc(-c2n[nH]cc2-c2ccnc(-c3ccc(CN4CCOCC4)cc3)c2)nc1,40%
14,Cc1cc(-c2ccnc(Nc3cccc(C#N)c3)n2)cc(C)c1O,0%
15,CN(c1ccc(NC(=O)Nc2cccc(Cl)c2)cc1)c1ccnc(N)n1,13.4%
16,COc1cccc(C2=C(Nc3ccc(SC)cc3)C(=O)NC2=O)c1,0%
17,CN1CCN(CCCNc2nccc(-c3c(-c4ccc(F)cc4)nn4cc(C(F)(F)F)ccc34)n2)CC1,0%

row,SMILES,MOTILITY REDUCTION/CYTOTOXICITY
1,O=C(Nc1n[nH]c2nc(-c3ccccc3)ccc12)C1CC1,0%
2,CN(C)c1ncnc2nc[nH]c12 [DIMETHYLADENINE],0%
3,O=C(Nc1n[nH]c2cc(-c3cccs3)ccc12)C1CC1,0%
4,COc1ccc(C2=C(Nc3cccc(Cl)c3)C(=O)NC2=O)cc1,0%
5,Fc1ccc(-c2ncn(CCCN3CCOCC3)c2-c2ccccn2)cc1,13.4%
6,CN(C)S(=O)(=O)c1cc(-c2ccc3nccc(-c4cccc(S(N)(=O)=O)c4)c3c2)cnc1N,60%
7,O=C(Nc1ccc(Oc2ccc3[nH]c(NC(=O)c4ccco4)nc3c2)cc1)Nc1cc(C(F)(F)F)ccc1F,0%
8,Cn1cncc1-c1ccc2ncnc(Nc3ccc(OCc4ccccc4)cc3)c2c1,0%
9,CCn1cnc2c(NCc3ccccc3)ncnc21,0%
10,Clc1ccc(-c2cc(-c3c[nH]nc3-c3ccccn3)ccn2)cc1,0%
11,COc1ccc(Nc2nccc(NCCNC(=O)Nc3ccccc3F)n2)cc1,0%
12,COc1cc2ncn(-c3cc(OCc4ccncc4Br)c(C(N)=O)s3)c2cc1OC,0%
13,CCn1c(-c2ccccc2)nc2cnccc21,0%
14,COc1cccc(NC(=O)NC2CCN(c3ccnc(Nc4ccc(F)cc4)n3)C2)c1 (centres undefined),13.4%
15,NCCS[As](SCCN)c1ccc(Nc2nc(N)nc(N)n2)cc1,100%
16,Cc1ccc(Nc2ccnc(Nc3ccc(C)c(F)c3)n2)cc1O,33.4%
17,O=C(Nc1n[nH]c2cc(-c3cccc(F)c3)ccc12)C1CC1,0%
